Values quoted from earlier work, collected in patent US10640746B2, “Synthetic methylotrophs” (UNIVERSITY OF DELAWARE, priority 2016, dated 2020).

Tests used:
Conditions in all cases: in vitro
[1] = system: Corynebacterium glutamicum R (Cgl R) alcohol dehydrogenase A (Cgl AdhA, CgAdhA; GenBank BAF55711.1; SEQ ID NO: 1)
[2] = system: Bacillus stearothermophilus 2334 (Bst) methanol dehydrogenase (Bst Mdh, BsMdh)
[3] = system: Bacillus methanolicus MGA3 (Bme) methanol dehydrogenase 3 (Bme Mdh3, BmMdh3)

| SMILES | Km [1] [mM] | Vmax [1] [µmol/min/mg] | Km [2] [mM] | Vmax [3] [µmol/min/mg] | Vmax [2] [µmol/min/mg] |
| --- | --- | --- | --- | --- | --- |
| CCCCO [n-BuOH, n-butanol] | 35 | 8.9 | 0.01 | 2.3 | – |
| CO [MeOH, methanol] | 3 | 0.7 | 20 | 0.07 | 2.1 |
| CCCO [n-PrOH, propanol] | 7.5 | 7.7 | 0.02 | 3.5 | – |
| CCO [EtOH, ethanol] | 6.8 | 7.8 | 0.08 | 2 | – |
